Entries after “also recorded” stand apart in the source; their conditions may differ. Counter-ions that a name gives are not always drawn.
What was measured:
[1] = tested on: CD34+Lin− stem and progenitor cells; assay: FACS analysis of hematopoietic stem and progenitor profiles of CML patient samples before and after imatinib; format: in vivo, human
Description: Bone Marrow and Peripheral Blood Samples. Fresh human bone marrow was obtained with informed consent from healthy volunteers (AllCells, Berkeley, Calif.) as well as from allogeneic bone marrow donors (Department of Bone Marrow Transplantation, Stanford School of Medicine, Stanford, Calif.). Cytokine (G-CSF) mobilized peripheral blood samples were also obtained following apheresis from allogeneic donors.
Hematopoietic Stem Cell and Myeloid Progenitor Flow Cytometric Analysis and Cell Sorting. Mononuclear fractions were extracted following Ficoll density centrifugation according to standard methods and analyzed fresh or subsequent to rapid thawing of samples previously frozen in 90% FCS and 10% DMSO in liquid nitrogen. Prior to FACS analysis and sorting, hematopoietic stem cells (HSCs) were stained with lineage marker specific phycoerythrin (PE)-Cy5-conjugated antibodies including CD2 RPA-2.10; CD11b, ICRF44; CD20, 2H7; CD56, B159; GPA, GA-R2 (Becton Dickinson-PharMingen, San Diego), CD3, S4.1; CD4, S3.5; CD7, CD7-6B7; CD8, 3B5; CD10, 5-1B4, CD14, TUK4; CD19, SJ25-C1 (Caltag, South San Francisco, Calif.) and APC-conjugated anti-CD34, 84G12 (Becton Dickinson-Pharmingen), biotinylated anti-CD38, HIT2 (Caltag), FITC-conjugated anti-CD90 and PE conjugated anti-Flk2. […]
Myeloid progenitors were stained with the same lineage marker specific PE-Cy5-conjugated antibodies, APC-conjugated anti-CD34, 8G12 (Becton Dickinson-PharMingen) and biotinylated anti-CD38, HIT2 (Caltag) in addition to PE-conjugated anti-IL-3Rα, 9F5 (Becton Dickinson-ParMingen) and FITC-conjugated anti-CD45RA, MEM56 (Caltag) followed by staining with Streptavidin-Texas Red to visualize CD38-BIO stained cells and resuspension in propidium iodide to exclude dead cells. Unstained samples and isotype controls were included to assess background fluorescence. After staining, cells were analyzed and sorted using a modified FACS Vantage (Becton Dickinson Immunocytometry Systems, Mountain View, Calif.) equipped with a 599 nm dye laser and a 488 nm argon laser. […]

β-catenin = β-catenin FACS analysis of CML patient progenitors; format: in vivo, human; conditions: CML patients pre versus post-imatinib
Description: β-catenin FACS Analysis. FACS-separated hematopoietic stem cells, common myeloid progenitors, granulocyte/macrophage progenitors, and megakaryocyte/erythroid progenitors were fixed with 0.8% paraformaldehyde and made permeable with 0.3% saponin. Cells were stained overnight with a fluorescein isothiocyanate (FITC)-conjugated antibody to β-catenin (Transduction Laboratories) or IgG1 isotype control-FITC antibody, washed, and analyzed by FACS.

Cc1ccc(NC(=O)c2ccc(CN3CCN(C)CC3)cc2)cc1Nc1nccc(-c2cccnc2)n1 [imatinib, imatinib mesylate]
number of CD34+Lin− cells ([1]; CML patients post-imatinib / responding to imatinib, bone marrow and peripheral blood): dramatic decline; also recorded: significant decrease | number of CD34+CD38− and CD34+CD38+ cells ([1]; imatinib responsive patients): decreased | proportion of individual myeloid progenitors ([1]; imatinib responsive patients): reverted to normal | β-catenin levels (MFI) in myeloid progenitors (β-catenin): normal
